Test results published in patent publication US4129659A, “Method for improving cardiovascular function with salinomycin” (The University of Miami, priority 1977, dated 1978).
Like-named read-outs stand apart in the source and are kept apart here.

Experiments:
[1] = system: cardiac muscle; conditions: in words; cited from earlier work
[2] = system: erythrocytes of whole fresh human blood; assay: RBC K+ leak: release of erythrocyte potassium into plasma fraction in vitro; assay type: cell-based; conditions: for Ratio 2/4 (coronary flow potency / RBC K+ leak potency): dog coronary flow vs human RBC K+ leak; for Ratio 2/4 (coronary flow potency / RBC K+ leak potency) / Ratio 1/4 (inotropic potency / RBC K+ leak potency) / RBC K+ Leak Potency (column 4): relative to lasalocid; for Ratio 1/4 (inotropic potency / RBC K+ leak potency): dog inotropy vs human RBC K+ leak; for RBC K+ Leak Potency (column 4): reciprocal of concentration which leaked 15 mM K+/hr from erythrocytes
Experimental: ^4 RBC K^+ leak potency is the reciprocal of the concentration
which leaked 15 mMK^+ /hr. from the erythrocytes of whole fresh human
blood, relative to that of Lasalocid. The reference concentration of
The intrinsic ability of the test ionophores to release cellular potassium was measured using whole human blood and assaying the release of erythrocyte potassium into the plasma fraction in vitro.

[3] = system: heart and coronary circulation of anesthetized dogs; assay: Physiological effects of ionophores in anesthetized dogs: inotropic and coronary flow potency relative to lasalocid; assay type: in vivo, dog
Experimental: Extended experimental studies were conducted involving a number of ionophores.
^1 Studies conducted on anesthetized dogs.
^2 Ionotropic potencies are expressed as the reciprocal of the dose
required to double dP/dt Max., relative to the dose of Lasolocid required
^3 Coronary flow potency is calculated as the inotropic potency,
normalized for coronary flow by the factor: coronary flow increased
produced by doubling dose of the test ionophore/coronary flow produced by
the doubling dose of Lasalocid.

[4] = system: skeletal and cardiac muscle; conditions: prior finding ("it has been shown"); in words; cited from earlier work
[5] = system: heart; assay: Studies in anesthetized normal and infarcted dogs and isolated guinea pig and rabbit hearts; assay type: in vivo, dog; conditions: in words
[6] = system: heart and coronary circulation of anesthetized dogs; assay: Hemodynamic effects of intravenous salinomycin in anesthetized normal dogs; assay type: in vivo, dog (normal female mongrel dogs); conditions: for Coronary Flow, % of Control / dP/dt, % of Control: Table 1
Experimental: Normal female mongrel dogs, weighing 30-35 lbs., were anesthetized with intravenous sodium pentobarbital (20 mg/kg.) and artificially ventilated. […] The derivative of the left ventricular pressure (dP/dt) was obtained from a Millar micromanometer-tipped catheter after differentiation by an appropriate R-C circuit. The electrocardiogram was monitored from standard leads attached to the extremities of the dog. All parameters were recorded simultaneously and continuously by a multichannel photographer recorder, and were monitored during the experiments by a multichannel oscilloscope.
After all vital parameters had become stable, 0.03 mg/kg of salinomycin in absolute ethanol was administered over a period of 30 seconds to 1 minute. An hour later a larger dose of 0.06 mg/kg was administered to the same dog.
Further information on the hemodynamic effects of salinomycin were obtained in a study involving seven dogs. Using the same procedure set forth hereinabove and after all vital parameters had become stable, 0.075 mg/kg of salinomycin in absolute ethanol was administered over a period of 30 seconds to one minute.

[7] = Oral LD50 in chickens; conditions: chicken, in vivo, oral administration
[8] = system: skeletal and cardiac muscle; assay: Skeletal and cardiac myopathy upon chronic administration; assay type: in vivo; conditions: in words
[9] = system: intra-cellular Na+; assay: Intracellular cation exchange (Na+ for K+); conditions: in exchange for K+; in words
[10] = Solubility in water; assay type: physicochemical; conditions: in words
[11] = Oral LD50 in dogs; conditions: dog, in vivo, oral administration
[12] = inotropic potency normalized for coronary flow increase at doubling dose, relative to lasalocid, anesthetized dogs
[13] = reciprocal of dose required to double dP/dt Max., relative to lasalocid, anesthetized dogs
[14] = 0.03 mg/kg in absolute ethanol, anesthetized dog
[15] = 0.06 mg/kg, an hour after 0.03 mg/kg, same dog
[16] = 0.075 mg/kg, seven dogs, P <.001
[17] = 0.075 mg/kg, seven dogs, P <.01

For `CC[C@@H](C(=O)[C@@H](C)[C@@H](O)[C@H](C)CCc1ccc(C)c(O)c1C(=O)O)[C@H]1O[C@](CC)([C@H]2CC[C@](O)(CC)[C@H](C)O2)C[C@@H]1C` [Lasalocid, lasalocid], the “cardiac effects (prior art)” value [1] is given as “cardiotrophic properties”, the “Ratio 2/4 (coronary flow potency / RBC K+ leak potency)” value [2] is given as 1.0 and the “Ratio 1/4 (inotropic potency / RBC K+ leak potency)” value [2] is given as 1.0. For the same molecule, the “concentration which leaked 15 mM K+/hr. from erythrocytes” value ([2]; human) was 11.5 µM, the “Coronary Flow Potency” value [3] was 1.0 and the “Inotropic Potency” value [3] was 1.0. The “Ratio 2/1 (coronary flow potency / inotropic potency)” value ([3]; relative to lasalocid, anesthetized dogs) was 1.0.

With `CC[C@@]1([C@@H]2O[C@@H]([C@H]3O[C@@](O)(CO)[C@H](C)C[C@@H]3C)C[C@@H]2C)CC[C@H]([C@]2(C)CC[C@]3(C[C@H](O)[C@@H](C)[C@@H]([C@@H](C)[C@@H](OC)[C@H](C)C(=O)O)O3)O2)O1` [Monensin] the “Ratio 2/4 (coronary flow potency / RBC K+ leak potency)” value [2] was 1.4, the “Ratio 1/4 (inotropic potency / RBC K+ leak potency)” value [2] was “.84” and the “RBC K+ Leak Potency (column 4)” value [2] was 7.2. For the same molecule, the “Coronary Flow Potency” value [3, 12] was 10.0 and the “Inotropic Potency” value [3, 13] was 6.1.

With `CO[C@H]1CC[C@@H](O[C@H]2C[C@H]([C@]3(C)CC[C@]4(C[C@H](O)[C@@H](C)[C@@H]([C@@H](C)/C=C(\C)C(=O)[C@H](C)C[C@H](C)C(=O)O)O4)O3)O[C@]3(O[C@@H]([C@H]4O[C@@](O)(CO)[C@H](C)C[C@@H]4C)C[C@@H]3C)[C@@H]2C)O[C@@H]1C` [Dianemycin] the “Ratio 2/4 (coronary flow potency / RBC K+ leak potency)” value [2] was “.25”, the “Ratio 1/4 (inotropic potency / RBC K+ leak potency)” value [2] was “.24” and the “RBC K+ Leak Potency (column 4)” value [2] was 18.0. For the same molecule, the “Coronary Flow Potency” value [3, 12] was 4.6 and the “Inotropic Potency” value [3, 13] was 4.3.

With Lysocellin the “Ratio 1/4 (inotropic potency / RBC K+ leak potency)” value [2] was “.36”, the “RBC K+ Leak Potency (column 4)” value [2] was 4.1 and the “Inotropic Potency” value [3, 13] was 1.5.

For `CO[C@H]1C[C@@H](C[C@H]2O[C@@](O)([C@H](C)C(=O)O)[C@H](C)[C@H](OC)[C@@]2(C)O[C@H]2CC[C@@H](OC)[C@H](C)O2)O[C@]2(O[C@@](C)([C@@H]3CC[C@H]([C@H]4CC[C@H]([C@H]5O[C@](C)(O)[C@H](C)C[C@@H]5C)O4)O3)[C@H](OC)[C@H]2C)[C@@H]1C` [Septamycin], the “Inotropic Potency” value [3, 13] was 2.0.

For `COC1CCC(OC2C(C)C(O)(C(C)C(=O)O)OC(CC3CC(OC)C(C)C4(O3)OC(C)(C3CCC(C5CCC(C6OC(C)(O)C(C)C(OC)C6C)O5)O3)C(OC)C4C)C2(C)OC)OC1C` (stereo not drawn) [A-204], the “Ratio 2/4 (coronary flow potency / RBC K+ leak potency)” value [2] was “.34”, the “Ratio 1/4 (inotropic potency / RBC K+ leak potency)” value [2] was “.32” and the “increase in potassium cellular leakage potency compared with salinomycin” value ([2]; human) was 400%. For the same molecule, the “RBC K+ Leak Potency (column 4)” value [2] was 41.0, the “coronary flow potency compared with salinomycin” value ([3]; in words) was “markedly reduced coronary flow potency than salinomycin” and the “inotropic potency compared with salinomycin” value ([3]; in words) was “slightly higher inotropic potency than salinomycin”. The “Coronary Flow Potency” value [3, 12] was 14.1, the “Inotropic Potency” value [3, 13] was 13.1 and the “skeletal and cardiac myopathy upon chronic administration” value [4] was “exhibits the undesirable side effects of skeletal and cardiac myopathy upon chronic administration”.

In the case of `NCCc1ccc(O)c(O)c1` [dopamine], the “cardiac effects (prior art)” value [1] is listed as “exerts positive inotropic and chronotropic effects”.

In the case of `CC[C@@H]1O[C@@H]([C@]2(C)C[C@@H](C)[C@](O)([C@]3(C)CC[C@@H]([C@@H](O)[C@]4(O)O[C@H](C[C@@]5(O)O[C@@H]([C@@H](C)[C@H](O)C[C@H]6CC[C@H](C)[C@@H]([C@@H](C)C(=O)O)O6)CC[C@@H]5C)[C@@H](C)C[C@H]4C)O3)O2)CC[C@@]1(C)O` [X-206], the “Ratio 2/4 (coronary flow potency / RBC K+ leak potency)” value [2] was “.79”, the “Ratio 1/4 (inotropic potency / RBC K+ leak potency)” value [2] was “.70” and the “RBC K+ Leak Potency (column 4)” value [2] was 10.9. The “Coronary Flow Potency” value [3, 12] was 8.6 and the “Inotropic Potency” value [3, 13] was 7.7.

In the case of `CC[C@@H](C(=O)[C@@H](C)[C@@H](O)[C@H](C)[C@@H]1O[C@@H]([C@@H](CC)C(=O)O)CC[C@@H]1C)[C@H]1O[C@]2(C=C[C@@H](O)[C@]3(CC[C@@](C)([C@H]4CC[C@](O)(CC)[C@H](C)O4)O3)O2)[C@H](C)C[C@@H]1C` [Salinomycin, salinomycin], the “effect on cardiac output, coronary flow and myocardial work efficiency” value [5] was “increases in cardiac output, coronary flow and myocardial work efficiency”, the “effect on coronary arteries” value [5] was “dilates the coronary arteries” and the “effect on force of myocardial contraction and heart rate” value [5] was “increases the force of myocardial contraction and heart rate”. The “effect on total peripheral resistance” value [5] was “decreases the total peripheral resistance”, the “Coronary Flow, % of Control” value [6, 14] was 175% and the “dP/dt, % of Control” value [6, 14] was 131%. The “Coronary Flow, % of Control” value [6, 15] was 375%, the “dP/dt, % of Control” value [6, 15] was 180% and the “Cardiac Output, Mean % Control” value [6, 16] was 178%. The “dP/dt Max., Mean % Control” value [6, 16] was 204%, the “Coronary Flow, Mean % Control” value [6, 17] was 522% and the “Coronary Resistance, Mean % Control” value [6, 17] was 38%. The “Heart Rate, Mean % Control” value [6, 17] was 113%, the “Total Peripheral Resistance, Mean % Control” value ([6]; 0.075 mg/kg, seven dogs, P <.02) was 77% and the “Cardiac Output + Salinomycin (mean ± SE)” value ([6]; 0.075 mg/kg, seven dogs, control 1.83 ± .2, P <.001) was 3.2 ± .2 L/min. For the same molecule, the “Coronary Flow + Salinomycin (mean ± SE)” value ([6]; 0.075 mg/kg, seven dogs, control 21 ± 4.8, P <.01) was 93 ± 19 mL/min, the “Heart Rate + Salinomycin (mean ± SE)” value ([6]; 0.075 mg/kg, seven dogs, control 152 ± 7, P <.01) was 170 ± 4 min.^-1 and the “Coronary Resistance + Salinomycin (mean ± SE)” value ([6]; 0.075 mg/kg, seven dogs, control 460 ± 98, P <.01) was 150 ± 25 dynes sec cm^-5. The “dP/dt Max. + Salinomycin (mean ± SE)” value ([6]; 0.075 mg/kg, seven dogs, control 2340 ± 265, P <.001) was 4700 ± 618 mm. Hg sec^-1, the “Total Peripheral Resistance + Salinomycin (mean ± SE)” value ([6]; 0.075 mg/kg, seven dogs, control 4200 ± 600, P <.02) was 3200 ± 400 dynes sec cm^-5 and the ED (2-fold dP/dt max) ([6]; Canis lupus familiaris, iv, in absolute ethanol, anesthetized dogs, read-out: dose that doubles left ventricular max. dP/dt) was 0.075 mg/kg. The “cardiovascular effects (inotropic, chronotropic)” value ([6]; in words) was “positive inotropic effects with minimal chronotropic effects”, the LD50 [7] was 125 mg/kg and the “skeletal and cardiac myopathy upon chronic administration” value [8] was “This undesirable effect has not been shown”. For the same molecule, the “effect on intra-cellular Na+” value [9] was “increase in intra-cellular Na^+ in exchange for K^+”, the solubility in water [10] was “minimal solubility in water” and the LD50 [11] was 10 mg/kg. For the same molecule, the “pharmacological effect vs potassium release, compared with other carboxylic ionophores” value ([2]; Table 3, columns 5 and 6, in words) was “superior to all other carboxylic ionophores examined”, the “Ratio 2/4 (coronary flow potency / RBC K+ leak potency)” value [2] was 1.96 and the “Ratio 1/4 (inotropic potency / RBC K+ leak potency)” value [2] was 1.21. For the same molecule, the “RBC K+ Leak Potency (column 4)” value [2] was 10.0, the “separation between positive inotropy and coronary vasodilation” value ([3]; compared with other carboxylic ionophores, in words) was “more pronounced separation between the two principal cardiotonic responses of positive inotropy and coronary vasodilation” and the “Coronary Flow Potency” value [3, 12] was 19.6. For the same molecule, the “Inotropic Potency” value [3, 13] was 12.1.

In the case of `COC1CC(CC2CCC(C)C(C(C)C(=O)O)O2)OC2(OC(C)(C3CCC(C)(C4OC(C5OC(O)(CO)C(C)CC5C)CC4C)O3)CC2C)C1C` (stereo not drawn) [Nigerlcin], the “Ratio 2/4 (coronary flow potency / RBC K+ leak potency)” value [2] was “.21”, the “Ratio 1/4 (inotropic potency / RBC K+ leak potency)” value [2] was “.17” and the “RBC K+ Leak Potency (column 4)” value [2] was 16.4. For the same molecule, the “Coronary Flow Potency” value [3, 12] was 3.4 and the “Inotropic Potency” value [3, 13] was 2.8.
